Assay results taken from ChEMBL document CHEMBL4251547, “The discovery of a pan-genotypic, primer grip inhibitor of HCV NS5B polymerase” (Medchemcomm, 2017).

Columns and labels:
[1] = Plasma concentration in rat at 6 mg/kg, po after 24 hrs; assay type: ADME, organism-based
[2] = AUC in cynomolgus monkey at 3 mg/kg, po; assay type: ADME, organism-based, Macaca fascicularis; details: in vivo
[3] = Volume of distribution at steady state in dog at 1 mg/kg, iv or 3 mg/kg, po; assay type: ADME, organism-based, Canis lupus familiaris; details: in vivo, read-out: Vdss
[4] = AUC in rat at 6 mg/kg, po; assay type: ADME, organism-based; details: in vivo
[5] = Cmax in rat at 6 mg/kg, po; assay type: ADME, organism-based; parameters: dose 6 mg/kg, route oral; details: in vivo
[6] = Oral bioavailability in cynomolgus monkey at 3 mg/kg; assay type: ADME, organism-based, Macaca fascicularis; details: in vivo
[7] = system: Canis familiaris; experiment: AUC in dog at 3 mg/kg, po; assay type: ADME, organism-based, Canis lupus familiaris; details: in vivo
[8] = system: Canis familiaris; experiment: Oral bioavailability in dog at 3 mg/kg; assay type: ADME, organism-based, Canis lupus familiaris; details: in vivo
[9] = Volume of distribution at steady state in cynomolgus monkey at 1 mg/kg, iv or 3 mg/kg, po; assay type: ADME, organism-based, Macaca fascicularis; details: in vivo, read-out: Vdss
[10] = (§1) Oral bioavailability in rat at 6 mg/kg; assay type: ADME, organism-based; details: in vivo
[11] = Volume of distribution at steady state in rat at 2 mg/kg, iv or 6 mg/kg, po; assay type: ADME, organism-based; details: in vivo, read-out: Vdss
[12] = Cmax in rat at 2 mg/kg, iv; assay type: ADME, organism-based; parameters: dose 2 mg/kg, route intravenous; details: in vivo
[13] = system: Rattus norvegicus; experiment: as §1; assay type: ADME, organism-based; details: in vivo
[14] = Drug uptake in rat liver at 6 mg/kg, po after 24 hrs; assay type: ADME, organism-based; details: read-out: Drug uptake
[15] = Drug uptake in rat liver at 6 mg/kg, po after 48 hrs; assay type: ADME, organism-based; details: read-out: Drug uptake

| concentration at 24 h [1] | AUC [2] | Vd [3] | AUC [4] | Cmax [5] | bioavailability [6] | AUC [7] | F [8] | Vd [9] | bioavailability [10] | Vd [11] | Cmax [12] | F [13] | concentration at 24 h [14] | concentration at 48 h [15] | SMILES |
| --- | --- | --- | --- | --- | --- | --- | --- | --- | --- | --- | --- | --- | --- | --- | --- |
| 150 nM | 8.3 µM·h | 3.3 L/kg | 0.15 to 13 µM·h | 1100 nM | 61% | 25 µM·h | 85% | 2.8 L/kg | 58% | 5.6 L/kg | 1700 nM | – | – | – | CNC(=O)c1c(-c2ccc(F)cc2)oc2nc(CCC(F)(F)F)c(-c3cccc(C(=O)NC(C)(C)c4ncon4)c3)cc12 |
| 39 nM | – | – | – | 600 nM | – | – | – | – | – | – | 2500 nM | 31% | – | – | CNC(=O)c1c(-c2ccc(F)cc2)oc2nc(NCC(F)(F)F)c(-c3cccc(C(=O)NC(C)(C)c4ncon4)c3)cc12 |
| 560 nM | – | – | 18 µM·h | 600 nM | – | – | – | – | 64% | – | 1700 nM | – | 1600 nM | – | CCNc1nc2oc(-c3ccc(F)cc3)c(C(=O)NC)c2cc1-c1cccc(C(=O)NC(C)(C)C)c1 |
| 160 nM | – | – | 10 µM·h | 900 nM | – | – | – | – | 44% | – | 3200 nM | – | 900 nM | 820 nM | CNC(=O)c1c(-c2ccc(F)cc2)oc2nc(CCC(F)(F)F)c(-c3cccc(C(=O)NC45CC(C4)C5)c3)cc12 |
